Source: the NIST ThermoML archive (doi:10.1016/j.jct.2019.01.021)
Numbers after ± are expanded uncertainties.

Assay: Molar enthalpy of transition or fusion

- Molar enthalpy of transition or fusion (Crystal 1, DSC): 3.87 ± 0.191 kcal/mol
- Molar enthalpy of transition or fusion (Crystal 2, Adiabatic calorimetry): 0.00287 ± 0.00191 kcal/mol
SMILES: N.NS(=O)(=O)O [ammonium sulfamate]
